The values that follow come from patent publication EP4806891A1 (Kangbaida (Sichuan) Biotechnology Co., Ltd., priority 2023, dated 2025).

In the assay the target is T1, HEK-Blue-hTLR7 cells (Homo sapiens, UniProt Q9NYK1).
T1 construct: expressed in transfected cells; host or cells: HEK-Blue-hTLR7 cells (HEK293-derived reporter line)
T1 sequence (Q9NYK1 27-1049): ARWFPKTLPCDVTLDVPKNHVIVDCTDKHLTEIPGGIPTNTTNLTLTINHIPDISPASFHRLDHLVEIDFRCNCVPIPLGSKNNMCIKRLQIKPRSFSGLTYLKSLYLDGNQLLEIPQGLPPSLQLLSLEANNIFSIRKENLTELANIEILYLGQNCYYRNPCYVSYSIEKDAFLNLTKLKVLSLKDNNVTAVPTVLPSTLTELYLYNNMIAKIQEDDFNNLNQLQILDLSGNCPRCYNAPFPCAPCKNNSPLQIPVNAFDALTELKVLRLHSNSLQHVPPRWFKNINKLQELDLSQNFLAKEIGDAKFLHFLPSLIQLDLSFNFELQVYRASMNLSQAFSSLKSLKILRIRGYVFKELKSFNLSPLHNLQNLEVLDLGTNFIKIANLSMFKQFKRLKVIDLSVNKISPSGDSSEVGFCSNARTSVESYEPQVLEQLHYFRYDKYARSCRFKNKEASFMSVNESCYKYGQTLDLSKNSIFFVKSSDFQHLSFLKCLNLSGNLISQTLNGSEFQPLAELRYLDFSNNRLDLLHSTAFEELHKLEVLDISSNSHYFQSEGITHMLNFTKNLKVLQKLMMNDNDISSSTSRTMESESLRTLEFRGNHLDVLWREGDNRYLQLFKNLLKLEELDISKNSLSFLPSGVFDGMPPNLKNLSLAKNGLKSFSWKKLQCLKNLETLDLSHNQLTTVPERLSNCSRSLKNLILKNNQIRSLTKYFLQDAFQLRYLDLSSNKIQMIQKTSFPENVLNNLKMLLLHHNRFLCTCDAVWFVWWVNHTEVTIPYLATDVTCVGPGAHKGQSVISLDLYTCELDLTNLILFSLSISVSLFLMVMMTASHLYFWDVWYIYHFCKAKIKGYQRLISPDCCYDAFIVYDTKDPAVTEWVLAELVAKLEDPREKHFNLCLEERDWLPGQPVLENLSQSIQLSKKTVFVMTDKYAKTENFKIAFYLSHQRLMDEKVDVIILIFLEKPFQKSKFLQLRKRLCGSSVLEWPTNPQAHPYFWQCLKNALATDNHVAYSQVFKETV
In words: HEK-Blue-hTLR7 cell inhibition assay. The format is cell-based. Particulars: R848 0.8 µM, 16 h, OD 620 nm, read-out: TLR7 IC50. The procedure, abridged: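 Cells were pre-incubated 4 h, then co-treated 16 h at 37 °C with compound (10 doses, 0.5–10000 nM final) plus R848 (0.8 µM for TLR7, 3 µM for TLR8) or ODN2006 (1 µM, TLR9). Reporter OD620 gave inhibition relative to DMSO blank and agonist-only controls; IC50 came from curve fitting.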

Molecules are shown by their SMILES.

Regarding `CN(C)[C@H]1CC[C@H](c2nnc([C@]34CN(c5ccc(C#N)c6ncccc56)C[C@@]3(C(F)(F)F)C4)o2)CC1` [Compound 21, 5-((1S,5R)-1-(5-((1R,4S)-4-(dimethylamino)cyclohexyl)-1,3,4-oxadiazol-2-yl)-5-(trifluoromethyl)-3-azabicyclo[3.1.0]hexan-3-yl)quinoline-8-carbonitrile], the IC50 was under 100 nM.

On to `N#Cc1ccc(N2C[C@]3(c4nnc(C5=CCNC5)o4)C[C@]3(C(F)(F)F)C2)c2cccnc12` [Compound 22, 5-((1S,5R)-1-(5-(2,5-dihydro-1H-pyrrol-3-yl)-1,3,4-oxadiazol-2-yl)-5-(trifluoromethyl)-3-azabicyclo[3.1.0]hexan-3-yl)quinoline-8-carbonitrile], for which the IC50 is under 100 nM. As to `CN1CCC(n2cnc([C@]34CN(c5ccc(C#N)c6ncccc56)C[C@@]3(C(F)(F)F)C4)n2)CC1` [Compound 23, 5-((1S,5R)-1-(1-(1-methylpiperidin-4-yl)-1H-1,2,4-triazol-3-yl)-5-(trifluoromethyl)-3-azabicyclo[3.1.0]hexan-3-yl)quinoline-8-carbonitrile], the IC50 is under 100 nM. As for `N#Cc1ccc(N2C[C@]3(c4nnc(C#CCN5CCOCC5)o4)C[C@]3(C(F)(F)F)C2)c2cccnc12` [Compound 24, 5-((1S,5R)-1-(5-(3-morpholinoprop-1-yn-1-yl)-1,3,4-oxadiazol-2-yl)-5-(trifluoromethyl)-3-azabicyclo[3.1.0]hexan-3-yl)quinoline-8-carbonitrile], the IC50 is under 1000 nM. In the case of `CN(C)CC#Cc1nnc([C@]23CN(c4ccc(C#N)c5ncccc45)C[C@@]2(C(F)(F)F)C3)o1` [Compound 25, 5-((1S,5R)-1-(5-(3-(dimethylamino)prop-1-yn-1-yl)-1,3,4-oxadiazol-2-yl)-5-(trifluoromethyl)-3-azabicyclo[3.1.0]hexan-3-yl)quinoline-8-carbonitrile] it was under 100 nM; in that of `CC1(C)CC(Cc2nnc([C@]34CN(c5ccc(C#N)c6ncccc56)C[C@@]3(C(F)(F)F)C4)o2)CC(C)(C)N1` [Compound 26, 5-((1S,5R)-1-(5-((2,2,6,6-tetramethylpiperidin-4-yl)methyl)-1,3,4-oxadiazol-2-yl)-5-(trifluoromethyl)-3-azabicyclo[3.1.0]hexan-3-yl)quinoline-8-carbonitrile], under 100 nM; in that of `N#Cc1ccc(N2C[C@]3(c4nnc(N5CCOCC5)o4)C[C@]3(C(F)(F)F)C2)c2cccnc12` [Compound 27, 5-((1S,5R)-1-(5-morpholino-1,3,4-oxadiazol-2-yl)-5-(trifluoromethyl)-3-azabicyclo[3.1.0]hexan-3-yl)quinoline-8-carbonitrile], under 100 nM. To `CN1CCC(Oc2nnc([C@]34CN(c5ccc(C#N)n6ncc(F)c56)C[C@@]3(C(F)(F)F)C4)o2)CC1` [Compound 31, 3-fluoro-4-((1S,5R)-1-(5-((1-methylpiperidin-4-yl)oxy)-1,3,4-oxadiazol-2-yl)-5-(trifluoromethyl)-3-azabicyclo[3.1.0]hexan-3-yl)pyrazolo[1,5-a]pyridine-7-carbonitrile] belongs under 100 nM.

For the compound `N#Cc1ccc(N2C[C@]3(c4nnc(C5(F)CNC5)o4)C[C@]3(C(F)(F)F)C2)c2cccnc12` [Compound 32, 5-((1S,5R)-1-(5-(3-Fluoroazetidin-3-yl)-1,3,4-oxadiazol-2-yl)-5-(trifluoromethyl)-3-azabicyclo[3.1.0]hexan-3-yl)quinoline-8-carbonitrile], the 50% inhibitory concentration (IC50) was under 100 nM. In the case of `N#Cc1ccc(N2C[C@]3(c4nnc(C5CCNCC5F)o4)C[C@]3(C(F)(F)F)C2)c2cccnc12` (some centres unmarked) [Compound 33] it was under 100 nM; in that of `CN1CCC(c2nnc([C@]34CN(c5ccc(C#N)c6ncccc56)C[C@@]3(C(F)(F)F)C4)o2)CC1=O` (some centres unmarked) [Compound 34], under 100 nM; in that of `N#Cc1ccc(N2C[C@]3(c4nnc(CC5CNC5)o4)C[C@]3(C(F)(F)F)C2)c2cccnc12` [Compound 35, 5-((1S,5R)-1-(5-(azetidin-3-ylmethyl)-1,3,4-oxadiazol-2-yl)-5-(trifluoromethyl)-3-azabicyclo[3.1.0]hexan-3-yl)quinoline-8-carbonitrile], under 1000 nM. In the case of `CN1CC(Cc2nnc([C@]34CN(c5ccc(C#N)c6ncccc56)C[C@@]3(C(F)(F)F)C4)o2)C1` [Compound 36, 5-((1S,5R)-1-(5-((1-methylazetidin-3-yl)methyl)-1,3,4-oxadiazol-2-yl)-5-(trifluoromethyl)-3-azabicyclo[3.1.0]hexan-3-yl)quinoline-8-carbonitrile] it was under 100 nM. As to `CN1CCC(Cc2nnc([C@]34CN(c5ccc(C#N)c6ncccc56)C[C@@]3(C(F)(F)F)C4)o2)CC1` [Compound 37, 5-((1S,5R)-1-(5-((1-methylpiperidin-4-yl)methyl)-1,3,4-oxadiazol-2-yl)-5-(trifluoromethyl)-3-azabicyclo[3.1.0]hexan-3-yl)quinoline-8-carbonitrile], the half-maximal inhibitory concentration (IC50) is under 100 nM. As to `CN1CCC(Cc2nnc([C@]34CN(c5ccc(C#N)c6ncccc56)C[C@@]3(C(F)(F)F)C4)n2C)CC1` [Compound 38, 5-((1S,5R)-1-(4-methyl-5-((1-methylpiperidin-4-yl)methyl)-4H-1,2,4-triazol-3-yl)-5-(trifluoromethyl)-3-azabicyclo[3.1.0]hexan-3-yl)quinoline-8-carbonitrile], the half-inhibitory concentration (IC50) is under 1000 nM. Consider `CN1CC(c2nnc([C@]34CN(c5ccc(C#N)c6ncccc56)C[C@@]3(C(F)(F)F)C4)o2)C1` [Compound 39, 5-((1S,5R)-1-(5-(1-methylazetidin-3-yl)-1,3,4-oxadiazol-2-yl)-5-(trifluoromethyl)-3-azabicyclo[3.1.0]hexan-3-yl)quinoline-8-carbonitrile], for which the half-inhibitory concentration (IC50) was under 100 nM. To `N#Cc1ccc(N2C[C@]3(c4nnc(CN5CCOCC5)o4)C[C@]3(C(F)(F)F)C2)c2cccnc12` [Compound 40, 5-((1S,5R)-1-(5-(morpholinomethyl)-1,3,4-oxadiazol-2-yl)-5-(trifluoromethyl)-3-azabicyclo[3.1.0]hexan-3-yl)quinoline-8-carbonitrile] belongs under 1000 nM; to `N#Cc1ccc(N2C[C@]3(c4nnc(CN5CCCC5)o4)C[C@]3(C(F)(F)F)C2)c2cccnc12` [Compound 41, 5-((1S,5R)-1-(5-(Pyrrolidin-1-ylmethyl)-1,3,4-oxadiazol-2-yl)-5-(trifluoromethyl)-3-azabicyclo[3.1.0]hexan-3-yl)quinoline-8-carbonitrile], under 100 nM; to `CN(C)Cc1nnc([C@]23CN(c4ccc(C#N)c5ncccc45)C[C@@]2(C(F)(F)F)C3)o1` [Compound 42, 5-((1S,5R)-1-(5-((dimethylamino)methyl)-1,3,4-oxadiazol-2-yl)-5-(trifluoromethyl)-3-azabicyclo[3.1.0]hexan-3-yl)quinoline-8-carbonitrile], under 100 nM.

On to `N#Cc1ccc(N2C[C@]3(c4nnc(CCN5CCOCC5)o4)C[C@]3(C(F)(F)F)C2)c2cccnc12` [Compound 43, 5-((1S,5R)-1-(5-(morpholinoethyl)-1,3,4-oxadiazol-2-yl)-5-(trifluoromethyl)-3-azabicyclo[3.1.0]hexan-3-yl)quinoline-8-carbonitrile], for which the IC50 was under 1000 nM. In the case of `Cn1c(CN2CCCC2)nnc1[C@]12CN(c3ccc(C#N)c4ncccc34)C[C@@]1(C(F)(F)F)C2` [Compound 44, 5-((1S,5R)-1-(4-methyl-5-(pyrrolidin-1-ylmethyl)-4H-1,2,4-triazol-3-yl)-5-(trifluoromethyl)-3-azabicyclo[3.1.0]hexan-3-yl)quinoline-8-carbonitrile] it was under 1000 nM; in that of `N#Cc1ccc(N2C[C@]3(c4nnc(C5CNCC(F)C5)o4)C[C@]3(C(F)(F)F)C2)c2cccnc12` (stereo partly drawn) [Compound 45, 5-((1R,5S)-1-((difluoro-3-methyl)-12-fluoraneyl)-5-(5-(5-fluoropiperidin-3-yl)-1,3,4-oxadiazol-2-yl)-3-azabicyclo[3.1.0]hexan-3-yl)quinoline-8-carbonitrile], under 100 nM. To `N#Cc1ccc(N2C[C@]3(c4nnc(C5(F)CCNC5)o4)C[C@]3(C(F)(F)F)C2)c2cccnc12` (stereo partly drawn) [Compound 46, 5-((1S,5R)-1-(5-(3-fluoropyrrolidin-3-yl)-1,3,4-oxadiazol-2-yl)-5-(trifluoromethyl)-3-azabicyclo[3.1.0]hexan-3-yl)quinoline-8-carbonitrile] belongs under 100 nM.
